Measured values from US8808666B2, “Peptides that specifically target amyloid deposits” (University of Tennessee Research Foundation, priority 2010, dated 2014).
Entries after “also recorded” stand apart in the source; their conditions may differ.

What was measured:
[1] = tested on: ApoA2c amyloid-laden tissues; assay: Ex vivo amyloid binding assay with homogenized tissue of ApoA2c mice; set-up: species or system mouse; details: for binding to ApoA2c amyloid-laden tissues in vitro: 125I-labeled, 1 h incubation, gamma counting
Protocol: (§1) The novel peptide, p5R+14, was radiolabeled with ^125I via an oxidation reaction with chloramine T. The labeled peptide was separated from free iodide using size exclusion chromatography on a Sephadex G25 column. For ex vivo amyloid binding assays, the ^125I-labeled p5 and p5R+14 peptides were added to 50 μL of homogenized tissue derived from wild type or amyloid laden ApoA2c mice. After a 1 h incubation, the amount of bound peptide (% of total) was assessed by gamma counting following centrifugation. For in vivo imaging, peptides p5 and p5R+14 were radiolabeled as above, and the radiopurities were determined by using SDS-PAGE and phosphor imaging.

ApoA2c amyloid = assay: In vivo SPECT/CT imaging, biodistribution and micro-autoradiography in ApoA2c mice; set-up: species or system mouse; details: for SPECT/CT uptake in amyloid-laden tissues: 2 or 4 h pi; for biodistribution, tissue-to-muscle ratios, ApoA2c versus WT tissues: mouse, in vivo
Protocol: as §1
Approximately 200 μCi was injected iv in the lateral tail vein of ApoA2c mice (n=3). SPECT/CT images were acquired using the Inveon Tri-Modality System at 2 or 4 h pi. Organs were harvested and biodistribution of radiotracers was determined and recorded as % injected dose/gram. For comparisons between the peptides, tissue to muscle ratios were used. The tissues were then fixed in formalin, paraffin embedded, sectioned and exposed to photographic emulsion for ˜3 days.

AA amyloid = target: T1, AA amyloid (Mus musculus, UniProt P05367); assay: In vivo evaluation of radiolabeled peptides in TRIAD AA mouse model: SPECT imaging, biodistribution, autoradiography; details: for SPECT imaging of 125I-labeled fusion peptides in AA mice versus WT: mice with visceral AA amyloidosis; for autoradiography: binding to AA amyloid in the necrotic renal papillae in vivo: mouse
T1 construct: from tissue; host or cells: living TRIAD mice with systemic peripheral AA amyloidosis
T1 sequence (P05367 20-95 limits assumed): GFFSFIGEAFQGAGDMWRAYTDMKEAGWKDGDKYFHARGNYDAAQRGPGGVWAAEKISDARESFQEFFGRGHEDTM
Protocol: Based on the data obtained with protamines, in the Examples below, peptides that are positively charged are selected. They were labeled with radioiodine (I-125 and I-123) or technetium (Tc-99m) tested for in vivo binding to systemic AA amyloid deposits in the transgenic rapidly inducible amyloid disease (TRIAD) murine model by microSPECT or microPET imaging. The tissue biodistribution of each were assessed by gamma counting and the micro-distribution determined by autoradiography. Further, preliminary examinations were performed of the binding of biotinylated forms of these peptides with formalin-fixed, paraffin-embedded, amyloid-containing tissue sections from patients with AL κ and λ amyloidosis, Alzheimer's disease, Transthyretin amyloidsis (ATTR), serum amyloid protein A amyloidosis (AA), fibrinogen α amyloidosis (AFibα), calcifying epithelium odontogenic tumor amyloid (AODAM), galectin 7 amyloidosis (AGal), and Lect2 amyloidosis (ALECT2).
Two methods of radiolabeling the peptides were employed. For radioiodination, the direct oxidative iodination of tyrosyl groups on the peptides was employed. This method yields product with high specific activity (˜10-20 μCi/μg) of pure ^125I-labeled peptide. The second method involves radiolabeling the peptides with ^99mTc according to the method of Tran et al. (Bioconjugate Chem, 2007, 18, 549-558). The quality of each radiolabeled peptide was assessed by SDS-PAGE (15% poly-acrylamide) analyzed with quantitative phosphor imaging.
Each of the radiolabeled peptides were evaluated for its specific reactivity with amyloids in vivo, using the TRIAD AA mouse model, by using SPECT imaging, biodistribution measurements, and autoradiography. The reactivity of the radiolabeled peptides were assessed in transgenic rapidly inducible amyloid disease (TRIAD) mice with systemic peripheral AA amyloidosis as well as control (amyloid free) mice, by imaging the mice. The reactivity of the peptides were evaluated at 1 hour, 2 hours, 4 hours, 8 hours, 12 hours, or 24 hours post injection of the radiolabeled peptides. […] The other peptides also bound amyloids, but not as well as these.
In a dual-energy imaging experiment, peptide p31 was labeled with Tc^99m and SAP labeled with I^125 and the binding of each radiotracer was examined by using dual-energy microSPECT imaging in an individual TRIAD mouse with AA amyloidosis.
To examine the kinetics of the reactivity of peptides p48, p31, and p31-GGGY, dynamic PET imaging of I^124-labeled peptides p48, p31, p31-GGGY, and p50 (as a control) was performed in TRIAD mice with AA amyloidosis or wild type mice without amyloid. Finally, in a preliminary study, the binding of I^125-labeled SAP and Tc^99m-labeled peptide p31 was compared in the same TRIAD mouse with AA amyloidosis.

AA amyloid deposits = target: T2, AA amyloid deposits (Mus musculus, UniProt P05367)
T2 sequence (P05367 20-95 limits assumed): T1 sequence (P05367 20-95 limits assumed)
Protocol: Following radioiodination, ^125I-labeled protamine (^125I-protamine) was administered to animals with severe systemic AA amyloidosis mice or to amyloid-free mice and allowed to circulate for 1 hour, 2 hours, 4 hours, 8 hours or 24 hours. At each time point high-resolution microSPECT/CT images were acquired and the tissue distribution of the radioactivity determined by gamma counting. Finally, 6 μm-thick tissue sections were prepared for autoradiography and histological evaluation of the micro-distribution of the radiolabeled peptides and amyloid deposits, respectively.

[2] = target: T3, AGal amyloid (Galectin 7) (Homo sapiens, UniProt P47929); assay: Biotinylated peptide overlay on amyloid-containing tissue sections; format: binding
T3 construct: from tissue; host or cells: formalin-fixed patient tissue sections
T3 sequence (P47929 whole entry): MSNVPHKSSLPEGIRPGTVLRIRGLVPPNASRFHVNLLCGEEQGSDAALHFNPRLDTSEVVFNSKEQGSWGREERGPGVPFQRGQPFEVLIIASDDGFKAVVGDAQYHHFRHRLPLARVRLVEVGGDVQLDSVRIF
Protocol: (§2) To catalog the range of amyloids that p31 and other peptides may bind, biotinylated peptides using the biotinyl-maleimide adduct which interacts specifically with the solitary Cys residue in the “leader” sequence were prepared. The peptides were overlaid onto formalin-fixed 6 μm-thick amyloid-containing tissue sections, incubated overnight and then the distribution visualized using standard immunohistochemical techniques.

[3] = target: T4, ATTR amyloid (Transthyretin) (Homo sapiens, UniProt P02766); assay: as above; format: binding
T4 construct: amyloid-containing tissue sections from patients with AL κ and λ amyloidosis, Alzheimer's disease, Transthyretin amyloidsis (ATTR); from tissue; host or cells: formalin-fixed patient tissue sections
Protocol: as §2

[4] = tested on: AA amyloid (Serum amyloid protein A); assay: as above; format: binding; details: AA (human and canine)
Protocol: as §2

ALECT2 amyloid (Lectin2) = target: T5, ALECT2 amyloid (Lectin2) (Homo sapiens, UniProt O14960); assay: as above; format: binding
T5 construct: from tissue; host or cells: formalin-fixed patient tissue sections
T5 sequence (O14960 19-151): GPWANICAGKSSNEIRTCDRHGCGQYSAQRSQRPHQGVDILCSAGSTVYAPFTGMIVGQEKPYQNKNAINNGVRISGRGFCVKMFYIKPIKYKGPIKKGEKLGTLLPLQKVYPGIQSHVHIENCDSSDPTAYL
Protocol: as §2

[5] = target: T6, Aβ amyloid (Amyloid β peptide in Alzheimer's disease) (Homo sapiens, UniProt P05067); assay: as above; format: binding
T6 construct: Amyloid β peptide in Alzheimer's; from tissue; host or cells: formalin-fixed tissue sections from Alzheimer's disease patients
Protocol: as §2

[6] = tested on: AFibα amyloid (Fibrinogen α); assay: as above; format: binding, human
Protocol: as §2

ACEOT amyloid (ODAM) = assay: as above; format: binding, human
Protocol: as §2

[7] = tested on: ALλ amyloid (λ light chains); assay: as above; format: binding, human; details: overnight incubation, 6 μm-thick sections
Protocol: as §2

[8] = tested on: ALκ amyloid (κ light chains); assay: as above; format: binding, human
Protocol: as §2

[9] = tested on: amyloid deposits in tissues from patients with light chain (AL) amyloidosis, Alzheimer's disease and other forms of amyloidosis; assay: Biotinylated peptide overlay on formalin-fixed paraffin embedded patient tissues; format: binding, human; details: formalin-fixed paraffin embedded tissue sections
Protocol: The reactivity of biotinylated peptide p31 with amyloid deposits in formalin-fixed paraffin embedded tissues from patients with light chain (AL) amyloidosis, or Alzheimer's disease, and other forms of amyloidosis was examined.
as §2

## GGGYSKAQKAQAKQAKQAQKAQKAQAKQAKQ [p31-GGGY]
[1]
  binding to ApoA2c amyloid-laden tissues in vitro: able to bind
ApoA2c amyloid; ApoA2c mice
  uptake of radiotracer in splenic amyloid in vivo: no uptake
  SPECT/CT uptake in amyloid-laden tissues: lack of positive amyloid uptake
ApoA2c amyloid; ApoA2c mice, listed as 125I-p5
  micro-autoradiography of tissues: only slight uptake
ApoA2c amyloid; ApoA2c mice, listed as p5
  micro-autoradiography of tissues: scant amounts
ApoA2c amyloid
  biodistribution, tissue-to-muscle ratios, ApoA2c versus WT tissues: not significantly higher

## GGGYSRAQRAQARQARQAQRAQRAQARQARQAQRAQRAQARQARA [p31RGGGY + 14]
[1]
  binding to ApoA2c amyloid-laden tissues in vitro: able to bind
[1]; tissues of ApoA2c-amyloid mouse, listed as p5R+14
  amount bound compared between p5R+14 and p5: bound in greater amounts to all tissue samples as compared to p5; also recorded: higher binding in every tissue of interest
ApoA2c amyloid; ApoA2c mice
  micro-autoradiography of tissues: localized to amyloid within the tissues
ApoA2c amyloid; ApoA2c mice, listed as 125I-p5R+14
  SPECT/CT uptake in amyloid-laden tissues: uptake of ^125I-p5R+14 in amyloid-laden tissues such as the heart, liver, spleen and intestines; also recorded: cardiac uptake is not part of blood pool clearance
ApoA2c amyloid; ApoA2c mice, listed as p5R+14
  SPECT/CT uptake in amyloid-laden tissues: bound cardiac amyloid deposits as well as those in the liver, spleen and intestines
ApoA2c amyloid
  biodistribution, tissue-to-muscle ratios, ApoA2c versus WT tissues: clearly more p5R+14 binding to the diseased tissues

## YGRKKRRQRRRCGGYSKAQKAQAKQAKQAQKAQKAQAKQAKQ [TAT-p31, fusion of p31 with cell penetrating peptide]
AA amyloid
  SPECT imaging of 125I-labeled fusion peptides in AA mice versus WT: retained by the amyloid deposits in the liver spleen and kidneys

## protamine
AA amyloid deposits; AA mice
  microSPECT distribution in AA mice: sequestered by amyloid deposits in the liver, kidney, pancreas and spleen
AA amyloid deposits; AA mice, notably liver
  micro-autoradiography association with amyloid: preferentially associated with the AA amyloid
AA amyloid deposits; amyloid-free mice
  accumulation in organs or tissues of amyloid-free mice: little or no specific accumulation
AA amyloid deposits; liver, kidney, pancreas, spleen, stomach, gamma counting
  calculated tissue:muscle ratios, mice with AA versus amyloid-free mice: at least 2 fold
AA amyloid deposits; mouse, in vivo
  fate of radiolabel in control mice: rapidly dehalogenated

## CGGYSKAQKAQAKQAKQAQKAQKAQAKQAKQ (Heparin-binding peptide) [p31]
AA amyloid; 99mTc-labeled peptide, 125I-labeled SAP, same mouse
  SPECT imaging of AA amyloid compared to SAP: as effective as SAP; also recorded: the same as that for SAP
AA amyloid; 125I-labeled
  SPECT distribution in AA mouse compared to WT control: totally different
AA amyloid; 24 h post-injection
  retention on AA amyloid in vivo (SPECT images and biodistribution): remained bound to the AA amyloid in vivo
AA amyloid; TRIAD AA mouse model, 1-24 hours post injection
  specific amyloid binding, ranking from in vivo imaging studies: best specific amyloid binding reagents
AA amyloid; compared to SAP
  autoradiography: reactivity with murine pancreatic AA amyloid: greater reactivity with murine pancreatic AA amyloid as compared to SAP
AA amyloid; mice
  biodistribution: amount of amyloid bound compared to SAP: binds more amyloid in vivo
AA amyloid
  autoradiography: binding to AA amyloid in the necrotic renal papillae in vivo: binds AA amyloid in the necrotic renal papillae
[2]
  binding to amyloid in tissue sections: specifically binds significantly
[3]
  binding to amyloid in tissue sections: specifically binds significantly
[4]
  binding to amyloid in tissue sections: specifically binds significantly
ALECT2 amyloid (Lectin2)
  binding to amyloid in tissue sections: specifically binds significantly
[5]
  binding to amyloid in tissue sections: specifically binds significantly
[6]
  binding to amyloid in tissue sections: specifically binds significantly
ACEOT amyloid (ODAM)
  binding to amyloid in tissue sections: specifically binds significantly
[7]
  binding to amyloid in tissue sections: specifically binds significantly
[8]
  binding to amyloid in tissue sections: specifically binds significantly
[9]
  binding of biotinylated peptide to tissue amyloid: bound tissue amyloid from these patients with great affinity; also recorded: selectively bound to the amyloids in the tissue section

## RRLSYSRRRFCGGYSKAQKAQAKQA KQAQKAQKAQAKQAKQ (RRLSYSRRRFCGGYSKAQKAQAKQAKQAQKAQKAQAKQAKQ) [Syb3-p31, fusion of p31 with cell penetrating peptide]
AA amyloid
  SPECT imaging of 125I-labeled fusion peptides in AA mice versus WT: retained by the amyloid deposits in the liver spleen and kidneys

## GGYSKAQKAQAKQAKQAQKAQKAQAKQAKQGGTFFYGGSRGKRNNFKTEEY [WAL14465]
AA amyloid
  SPECT imaging of 125I-labeled fusion peptides in AA mice versus WT: retained by the amyloid deposits in the liver spleen and kidneys

## SAP: Serum amyloid P component, the gold standard amyloid imaging agent; decameric, Mw ~250 kD [reference compound]
AA amyloid
  autoradiography: binding to AA amyloid in the necrotic renal papillae in vivo: does not
